According to patent US20260125378A2, “Heterocyclic Compounds” (BeOne Medicines I GmbH, priority 2023, published 2026):
pIC50: −log10 of the molar value.

Experiments:
[1] = target: T1, Full length DGKζ (in-house protein M1-V929) (Homo sapiens, UniProt Q13574); test: Biochemical DGK IC50 assay (ADP-Glo, lipid micelle substrate), DGKζ; settings: 1 hour preincubation, 1 hour reaction, room temperature
T1 construct: His (N); TEV site (N); made in house; host or cells: Sf9 insect cells (Bac-to-Bac baculovirus)
T1 sequence (Q13574 1-929 isoform Q13574-4): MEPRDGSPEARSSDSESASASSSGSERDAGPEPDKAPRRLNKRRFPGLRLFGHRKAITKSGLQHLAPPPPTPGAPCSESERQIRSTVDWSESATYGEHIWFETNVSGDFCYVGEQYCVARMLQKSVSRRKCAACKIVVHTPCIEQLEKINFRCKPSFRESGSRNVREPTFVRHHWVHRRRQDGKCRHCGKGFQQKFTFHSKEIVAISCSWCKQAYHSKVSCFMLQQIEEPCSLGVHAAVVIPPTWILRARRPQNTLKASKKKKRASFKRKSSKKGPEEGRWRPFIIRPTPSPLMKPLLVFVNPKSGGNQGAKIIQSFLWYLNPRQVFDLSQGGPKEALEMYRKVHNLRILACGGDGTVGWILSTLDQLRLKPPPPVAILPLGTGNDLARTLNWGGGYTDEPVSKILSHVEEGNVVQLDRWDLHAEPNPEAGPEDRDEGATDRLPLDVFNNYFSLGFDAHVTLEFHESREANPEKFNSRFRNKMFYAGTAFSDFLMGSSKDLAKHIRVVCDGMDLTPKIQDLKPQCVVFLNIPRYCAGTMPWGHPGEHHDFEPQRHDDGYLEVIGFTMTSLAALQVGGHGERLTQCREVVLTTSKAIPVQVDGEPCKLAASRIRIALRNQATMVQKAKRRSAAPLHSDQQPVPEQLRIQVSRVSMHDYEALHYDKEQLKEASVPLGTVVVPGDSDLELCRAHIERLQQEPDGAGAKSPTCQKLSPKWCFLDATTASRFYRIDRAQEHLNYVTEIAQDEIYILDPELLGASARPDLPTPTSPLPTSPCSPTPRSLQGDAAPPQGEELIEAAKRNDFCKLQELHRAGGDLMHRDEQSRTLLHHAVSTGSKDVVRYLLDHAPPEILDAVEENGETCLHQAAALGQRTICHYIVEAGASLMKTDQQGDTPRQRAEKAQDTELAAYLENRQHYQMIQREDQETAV
Description: (§1) Enzymatic reactions of DGKζ, DGKα and DGKδ were performed using ADP-Glo assay with lipid micelle substrate. […] Full length DGKα (D21-10BG, SignalChem) and full length DGKδ (D23-10G, SignalChem) were purchased. Lipid micelle was prepared by dissolving DAG (Sigma, 317505-10 MG) and PS (Sigma, P7769-100 MG) with chloroform which was furtherly removed by rotary evaporation. The obtained residue was resuspended in buffer containing 25 mM HEPES pH 7.0, 0.5 mM EDTA and 160 mM Octyl β-D glucopyranoside by vigorous mixing and ultrasonic (IID, Scientz).
(§2) The inhibition activities testing for the compound disclosed herein were carried out at room temperature in assay buffer containing 50 mM HEPES, 10 mM MgCl2, 0.01% BSA, 0.1 mM Na3VO4, 0.005% Tween-20 and 0.01 mM CaCl2). Compounds in DMSO were dispensed into wells of a black 384 well plate (Corning 4514) using D300e digital dispenser (Tecan). […] 3 μL 2× enzyme solution was added to wells. […] After 1 hour reaction, 5 μL ADP-Glo reagent (Promga V9101) was added and incubated for 40 minutes. 10 μL Kinase Detection reagent was added and incubated for 30 minutes. Luminescence was measured on a microplate reader (PHERAstar FSX, BMG labtech). The IC50S are calculated based on inhibition of enzyme activity in the presence of increasing concentrations of compounds.
Human His-TEV-DGK-zeta-pFastBac1 and human baculovirus samples was generated using the Bac- to -Bac baculovirus expression system (Invitrogen) according to the manufacturer's protocol. The DNA used for expression of DGK-zeta, have SEQ ID Nos: 1. Baculovirus amplification was achieved using infected SF9 cells at 1:2000 virus/cells ratios, and grown for 96 hours at 27° C. post-transfected.
The expression scaled up for each protein was carried out in the […] from CORNING. 4 L of 3×10^6 cells/mL Sf9 cells (Expression System, Invitrogen) grown in SF900™ II SFM insect medium (Expression System) was infected with virus stock at 1:200 virus/cells ratio, and grown for 48 hours at 27° C. post-transfection. The infected cell culture was harvested by centrifugation at 6000 rpm for 15 min 4° C. in a SORVALL LYNX6000 centrifuge. The cell pellets were stored at −80° C.
Full length human DGKζ produced as described above, was purified from Sf9 baculovirus-infected insect cell paste. The cells were lysed using sonication method, and the lysates were clarified by centrifugation.

[2] = target: T2, Full length DGKα (D21-10BG, SignalChem) (Homo sapiens, UniProt P23743); test: Biochemical DGK IC50 assay (ADP-Glo, lipid micelle substrate), DGKα; settings: 1 hour preincubation, 1 hour reaction, room temperature
T2 construct: Full length DGKα (D21-10BG, SignalChem); purchased SignalChem D21-10BG
T2 sequence (P23743 whole entry): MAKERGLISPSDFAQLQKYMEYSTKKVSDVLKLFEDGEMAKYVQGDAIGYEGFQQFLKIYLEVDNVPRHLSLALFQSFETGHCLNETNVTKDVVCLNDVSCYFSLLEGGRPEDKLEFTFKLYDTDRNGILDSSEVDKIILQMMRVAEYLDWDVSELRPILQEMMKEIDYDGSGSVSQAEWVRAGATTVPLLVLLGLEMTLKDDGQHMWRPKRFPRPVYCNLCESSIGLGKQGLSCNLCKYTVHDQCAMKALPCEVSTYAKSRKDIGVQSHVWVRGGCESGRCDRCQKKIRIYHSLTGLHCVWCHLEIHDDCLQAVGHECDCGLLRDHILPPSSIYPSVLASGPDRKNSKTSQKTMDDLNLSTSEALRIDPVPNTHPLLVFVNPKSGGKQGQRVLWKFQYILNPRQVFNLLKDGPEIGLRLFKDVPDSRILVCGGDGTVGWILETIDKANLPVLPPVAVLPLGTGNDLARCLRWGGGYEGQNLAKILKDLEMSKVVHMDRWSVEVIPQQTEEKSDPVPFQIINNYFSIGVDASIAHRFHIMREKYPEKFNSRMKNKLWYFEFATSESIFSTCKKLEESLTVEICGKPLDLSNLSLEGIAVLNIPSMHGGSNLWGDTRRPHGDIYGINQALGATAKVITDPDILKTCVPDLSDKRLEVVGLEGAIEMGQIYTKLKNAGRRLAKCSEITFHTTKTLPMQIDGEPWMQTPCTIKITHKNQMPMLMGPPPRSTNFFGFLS
Description: as §1, §2

Row | Structure (SMILES) | pIC50 [1] | pIC50 [2]
1 | CCn1c(CC#N)nc2c(N3C[C@@H](C)N(C(C)c4ccnc(NC(C)C)c4)C[C@@H]3C)nc(=O)n(C)c21 (stereo partly drawn) [Compound A122, 2-(9-ethyl-6-((2S,5R)-4-(1-(2-(isopropylamino)pyridin-4-yl)ethyl)-2,5-dimethylpiperazin-1-yl)-3-methyl-2-oxo-3,9-dihydro-2H-purin-8-yl)acetonitrile] | 6.08 | < 3.82
2 | CCn1c(CC#N)nc2c(N3C[C@@H](C)N(C(C)c4ccc(N5CCOCC5)cc4)C[C@@H]3C)nc(=O)n(C)c21 (stereo partly drawn) [Compound A143, 2-(6-((2S,5R)-2,5-dimethyl-4-(1-(4-morpholinophenyl)ethyl)piperazin-1-yl)-9-ethyl-3-methyl-2-oxo-3,9-dihydro-2H-purin-8-yl)acetonitrile] | < 5.00 | < 3.82
3 | CCn1c(CC#N)nc2c(N3C[C@@H](C)N(C(C)c4ccc5c(n4)OC(C)(C)CO5)C[C@@H]3C)c(F)c(=O)n(C)c21 (stereo partly drawn) [Compound A21, 2-(7-((2S,5R)-4-(1-(3,3-dimethyl-2,3-dihydro-[1,4]dioxino[2,3-b]pyridin-6-yl)ethyl)-2,5-dimethylpiperazin-1-yl)-3-ethyl-6-fluoro-4-methyl-5-oxo-4,5-dihydro-3H-imidazo[4,5-b]pyridin-2-yl)acetonitrile] | 7.21 | < 3.82
4 | COc1cc(F)ccc1C(C)N1C[C@H](C)N(c2nc(=O)n(C)c3c2nc(CC#N)n3C)C[C@H]1C (single isomer, unassigned) [Compound A24b] | 7.38 | 3.88

These reach a higher pIC50 [1]. Values come first.

Row | pIC50 [1] | pIC50 [2] | Structure (SMILES)
5 | 7.74 | < 3.82 | CCn1c(CC#N)nc2c(N3C[C@@H](C)N(C(C)c4ccc(F)c(C(F)(F)F)c4)C[C@@H]3C)nc(=O)n(C)c21 (stereo partly drawn) [Compound A113, 2-(9-ethyl-6-((2S,5R)-4-(1-(4-fluoro-3-(trifluoromethyl)phenyl)ethyl)-2,5-dimethylpiperazin-1-yl)-3-methyl-2-oxo-3,9-dihydro-2H-purin-8-yl)acetonitrile]
6 | 8.10 | 5.01 | CC(c1ccc2c(c1F)OC(C)(C)CO2)N1C[C@H](C)N(c2nc(=O)n(C)c3c2nc(CC#N)n3C)C[C@H]1C (stereo partly drawn) [Compound A70, 2-(6-((2S,5R)-4-(1-(5-fluoro-3,3-dimethyl-2,3-dihydrobenzo[b][1,4]dioxin-6-yl)ethyl)-2,5-dimethylpiperazin-1-yl)-3,9-dimethyl-2-oxo-3,9-dihydro-2H-purin-8-yl)acetonitrile]
7 | 7.89 | < 3.82 | CCn1c(CC#N)nc2c(N3C[C@@H](C)N(C(C)c4cc(F)c5c(n4)OC(C)(C)CO5)C[C@@H]3C)nc(=O)n(C)c21 (single isomer, unassigned) [Compound A163a]
8 | 7.51 | 4.02 | CCn1c(CC#N)nc2c(N3C[C@@H](C)N(C(C)c4ccc5c(c4)OC(F)(F)CO5)C[C@@H]3C)nc(=O)n(C)c21 (mixture of isomers) [Compound A80, 2-(6-((2S,5R)-4-(1-(3,3-difluoro-2,3-dihydrobenzo[b][1,4]dioxin-6-yl)ethyl)-2,5-dimethylpiperazin-1-yl)-9-ethyl-3-methyl-2-oxo-3,9-dihydro-2H-purin-8-yl)acetonitrile]
9 | 8.40 | < 3.82 | CCn1c(CC#N)nc2c(N3C[C@@H](C)N(C(C)c4ccc5c(c4)C(C)(C)CO5)C[C@@H]3C)nc(=O)n(C)c21 (stereo partly drawn) [Compound A183, 2-(6-((2S,5R)-4-(1-(3,3-dimethyl-2,3-dihydrobenzofuran-5-yl)ethyl)-2,5-dimethylpiperazin-1-yl)-9-ethyl-3-methyl-2-oxo-3,9-dihydro-2H-purin-8-yl)acetonitrile]
10 | 8.40 | < 3.82 | CCn1c(CC#N)nc2c(N3C[C@@H](C)N(C(C)c4ccnc(C(C)(C)C)c4)C[C@@H]3C)nc(=O)n(C)c21 (stereo partly drawn) [Compound A129, 2-(6-((2S,5R)-4-(1-(2-(tert-butyl)pyridin-4-yl)ethyl)-2,5-dimethylpiperazin-1-yl)-9-ethyl-3-methyl-2-oxo-3,9-dihydro-2H-purin-8-yl)acetonitrile]
